Measurements reported in ChEMBL document CHEMBL1135306, “Synthesis and evaluation of vancomycin and vancomycin aglycon analogues that bear modifications in the residue 3 asparagine” (2002).
In brackets after ≈: the same amount, converted by molar mass.

How the values were obtained:
Format in all cases: functional
[1] = system: Enterococcus faecium; assay: In vitro antibacterial activity against vancomycin resistant Enterococcus faecium
[2] = system: Enterococcus faecium; assay: In vitro antibacterial activity against Enterococcus faecium (ATCC 35667)
[3] = system: Staphylococcus aureus; assay: In vitro antibacterial activity against methicillin sensitive Staphylococcus aureus (ATCC 25923)
[4] = system: Enterococcus faecalis; assay: In vitro antibacterial activity against vancomycin resistant Enterococcus faecalis (VanB, ATCC 51299)
[5] = system: Enterococcus faecalis; assay: In vitro antibacterial activity against vancomycin resistant Enterococcus faecalis (VanA, BM4166)

| Compound | MIC [1] [µg/mL] | MIC [2] [µg/mL] | MIC [3] [µg/mL] | MIC [4] [µg/mL] | MIC [5] [µg/mL] |
| --- | --- | --- | --- | --- | --- |
| CN[C@H](CC(C)C)C(=O)N[C@H]1C(=O)N[C@@H](CC(N)=O)C(=O)N[C@H]2C(=O)N[C@H]3C(=O)N[C@H](C(=O)N[C@H](C(=O)O)c4cc(O)cc(O)c4-c4cc3ccc4O)[C@H](O)c3ccc(c(Cl)c3)Oc3cc2cc(c3O)Oc2ccc(cc2Cl)[C@H]1O [VANCOMYCIN AGLYCON] | 160 (≈ 140 µM) | 2.5 (≈ 2.19 µM) | 0.625 (≈ 0.546 µM) | 80 (≈ 69.9 µM) | 640 (≈ 559 µM) |
| CN[C@H](CC(C)C)C(=O)N[C@H]1C(=O)N[C@@H](CC#N)C(=O)N[C@H]2C(=O)N[C@H]3C(=O)N[C@H](C(=O)N[C@H](C(=O)O)c4cc(O)cc(O)c4-c4cc3ccc4O)[C@H](O)c3ccc(c(Cl)c3)Oc3cc2cc(c3O[C@@H]2O[C@H](CO)[C@@H](O)[C@H](O)[C@H]2O[C@H]2C[C@](C)(N)[C@H](O)[C@H](C)O2)Oc2ccc(cc2Cl)[C@H]1O | 320 (≈ 224 µM) | 80 (≈ 55.9 µM) | 20 (≈ 14 µM) | 320 (≈ 224 µM) | 320 (≈ 224 µM) |
| CN[C@H](CC(C)C)C(=O)N[C@H]1C(=O)N[C@@H](CC(N)=O)C(=O)N[C@H]2C(=O)N[C@H]3C(=O)N[C@H](C(=O)N[C@H](C(=O)OC)c4cc(O)cc(O)c4-c4cc3ccc4O)[C@H](O)c3ccc(c(Cl)c3)Oc3cc2cc(c3O[C@@H]2O[C@H](CO)[C@@H](O)[C@H](O)[C@H]2O[C@H]2C[C@](C)(N)[C@H](O)[C@H](C)O2)Oc2ccc(cc2Cl)[C@H]1O | 640 (≈ 437 µM) | 2.5 (≈ 1.71 µM) | 2.5 (≈ 1.71 µM) | 80 (≈ 54.7 µM) | 640 (≈ 437 µM) |
| CN[C@H](CC(C)C)C(=O)N[C@H]1C(=O)N[C@@H](CC(N)=O)C(=O)N[C@H]2C(=O)N[C@H]3C(=O)N[C@H](C(=O)N[C@H](C(=O)OC)c4cc(OC)cc(OC)c4-c4cc3ccc4OC)[C@H](O)c3ccc(c(Cl)c3)Oc3cc2cc(c3OC)Oc2ccc(cc2Cl)[C@H]1O | 40 (≈ 32.9 µM) | 1.25 (≈ 1.03 µM) | 0.625 (≈ 0.515 µM) | 10 (≈ 8.24 µM) | 40 (≈ 32.9 µM) |
| CN[C@H](CC(C)C)C(=O)N[C@H]1C(=O)N[C@@H](CC(N)=O)C(=O)N[C@H]2C(=O)N[C@H]3C(=O)N[C@H](C(=O)N[C@H](C(=O)OC)c4cc(O)cc(O)c4-c4cc3ccc4O)[C@H](O)c3ccc(c(Cl)c3)Oc3cc2cc(c3O)Oc2ccc(cc2Cl)[C@H]1O | 320 (≈ 276 µM) | 10 (≈ 8.64 µM) | 5 (≈ 4.32 µM) | 320 (≈ 276 µM) | 640 (≈ 553 µM) |
| CN[C@H](CC(C)C)C(=O)N[C@H]1C(=O)N[C@@H](CC#N)C(=O)N[C@H]2C(=O)N[C@H]3C(=O)N[C@H](C(=O)N[C@H](C(=O)O)c4cc(O)cc(O)c4-c4cc3ccc4O)[C@H](O)c3ccc(c(Cl)c3)Oc3cc2cc(c3O)Oc2ccc(cc2Cl)[C@H]1O | 640 (≈ 568 µM) | 20 (≈ 17.8 µM) | 10 (≈ 8.88 µM) | 320 (≈ 284 µM) | 640 (≈ 568 µM) |
| CN[C@H](CC(C)C)C(=O)N[C@H]1C(=O)N[C@@H](CC#N)C(=O)N[C@H]2C(=O)N[C@H]3C(=O)N[C@H](C(=O)N[C@H](C(=O)OC)c4cc(OC)cc(OC)c4-c4cc3ccc4OC)[C@H](O)c3ccc(c(Cl)c3)Oc3cc2cc(c3OC)Oc2ccc(cc2Cl)[C@H]1O | 40 (≈ 33.4 µM) | 1.25 (≈ 1.05 µM) | 0.625 (≈ 0.523 µM) | 2.5 (≈ 2.09 µM) | 40 (≈ 33.4 µM) |
| CN[C@H](CC(C)C)C(=O)N[C@H]1C(=O)N[C@@H](CC#N)C(=O)N[C@H]2C(=O)N[C@H]3C(=O)N[C@H](C(=O)N[C@H](C(=O)OC)c4cc(O)cc(O)c4-c4cc3ccc4O)[C@H](O)c3ccc(c(Cl)c3)Oc3cc2cc(c3O)Oc2ccc(cc2Cl)[C@H]1O | 320 (≈ 281 µM) | 5 (≈ 4.39 µM) | 1.25 (≈ 1.1 µM) | 320 (≈ 281 µM) | 320 (≈ 281 µM) |
| CN[C@H](CC(C)C)C(=O)N[C@H]1C(=O)N[C@@H](CC(N)=O)C(=O)N[C@H]2C(=O)N[C@H]3C(=O)N[C@H](C(=O)N[C@H](C(=O)O)c4cc(OC)cc(OC)c4-c4cc3ccc4OC)[C@H](O)c3ccc(c(Cl)c3)Oc3cc2cc(c3OC)Oc2ccc(cc2Cl)[C@H]1O | 40 (≈ 33.3 µM) | 2.5 (≈ 2.08 µM) | 0.625 (≈ 0.521 µM) | 20 (≈ 16.7 µM) | 40 (≈ 33.3 µM) |
| CN[C@H](CC(C)C)C(=O)N[C@H]1C(=O)N[C@@H](CC#N)C(=O)N[C@H]2C(=O)N[C@H]3C(=O)N[C@H](C(=O)N[C@H](C(=O)OC)c4cc(O)cc(O)c4-c4cc3ccc4O)[C@H](O)c3ccc(c(Cl)c3)Oc3cc2cc(c3O[C@@H]2O[C@H](CO)[C@@H](O)[C@H](O)[C@H]2O[C@H]2C[C@](C)(N)[C@H](O)[C@H](C)O2)Oc2ccc(cc2Cl)[C@H]1O | 320 (≈ 221 µM) | 10 (≈ 6.92 µM) | 2.5 (≈ 1.73 µM) | 160 (≈ 111 µM) | 640 (≈ 443 µM) |
| CN[C@H](CC(C)C)C(=O)N[C@H]1C(=O)N[C@@H](CC#N)C(=O)N[C@H]2C(=O)N[C@H]3C(=O)N[C@H](C(=O)N[C@H](C(=O)O)c4cc(OC)cc(OC)c4-c4cc3ccc4OC)[C@H](O)c3ccc(c(Cl)c3)Oc3cc2cc(c3OC)Oc2ccc(cc2Cl)[C@H]1O | 160 (≈ 135 µM) | 2.5 (≈ 2.11 µM) | 0.31 (≈ 0.262 µM) | 20 (≈ 16.9 µM) | 160 (≈ 135 µM) |
| CN[C@H](CC(C)C)C(=O)N[C@H]1C(=O)N[C@@H](CC(N)=O)C(=O)N[C@H]2C(=O)N[C@H]3C(=O)N[C@H](C(=O)N[C@H](C(=O)O)c4cc(O)cc(O)c4-c4cc3ccc4O)[C@H](O)c3ccc(c(Cl)c3)Oc3cc2cc(c3O[C@@H]2O[C@H](CO)[C@@H](O)[C@H](O)[C@H]2O[C@H]2C[C@](C)(N)[C@H](O)[C@H](C)O2)Oc2ccc(cc2Cl)[C@H]1O [VANCOMYCIN] | 500 (≈ 345 µM) | 2.5 (≈ 1.73 µM) | 1.25 (≈ 0.863 µM) | 125 (≈ 86.3 µM) | 2000 (≈ 1380 µM) |
